From PubChem BioAssay (NCI)
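At the GI50, growth is halved. TGI marks complete inhibition of growth.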

Key:
Test in all cases: NCI tumour cell line growth inhibition, 384-well format
[1] = system: 786-0 renal
[2] = system: A498 renal
[3] = system: A549 NSCLC
[4] = system: ACHN renal
[5] = system: BT-549 breast
[6] = system: CAKI-1 renal
[7] = system: CCRF-CEM leukemia
[8] = system: COLO 205 colon
[9] = system: DU-145 prostate
[10] = system: EKVX NSCLC
[11] = system: HCC-2998 colon
[12] = system: HCT-116 colon
[13] = system: HCT-15 colon
[14] = system: HL-60(TB) leukemia
[15] = system: HOP-62 NSCLC
[16] = system: HOP-92 NSCLC
[17] = system: HS 578T breast
[18] = system: HT29 colon
[19] = system: IGROV1 ovarian
[20] = system: K-562 leukemia
[21] = system: KM12 colon
[22] = system: LOX IMVI melanoma
[23] = system: M14 melanoma
[24] = system: MALME-3M melanoma
[25] = system: MCF7 breast
[26] = system: MDA-MB-231 breast
[27] = system: MDA-MB-435 melanoma
[28] = system: MDA-MB-468 breast
[29] = system: MOLT-4 leukemia
[30] = system: NCI-H226 lung
[31] = system: NCI-H23 lung
[32] = system: NCI-H322M lung
[33] = system: NCI-H460 NSCLC
[34] = system: NCI-H522 lung
[35] = system: NCI/ADR-RES ovarian
[36] = system: OVCAR-3 ovarian
[37] = system: OVCAR-4 ovarian
[38] = system: OVCAR-5 ovarian
[39] = system: PC-3 prostate
[40] = system: RPMI-8226 leukemia
[41] = system: RXF 393 renal
[42] = system: SF-268 CNS
[43] = system: SF-295 CNS
[44] = system: SF-539 CNS
[45] = system: SK-MEL-2 melanoma
[46] = system: SK-MEL-28 melanoma
[47] = system: SK-MEL-5 melanoma
[48] = system: SK-OV-3 ovarian
[49] = system: SN12C renal
[50] = system: SNB-19 CNS
[51] = system: SNB-75 CNS
[52] = system: SR leukemia
[53] = system: SW-620 colon
[54] = system: T-47D breast
[55] = system: TK-10 renal
[56] = system: U251 glioblastoma
[57] = system: UACC-257 melanoma
[58] = system: UACC-62 melanoma
[59] = system: UO-31 renal

COc1nccc(-c2c(-c3ccc(F)cc3)ncn2C2CCC(O)CC2)n1 (stereo not drawn)
GI50 [1]: 69.8 µM
TGI [1]: > 100 µM
GI50 [2]: > 100 µM
TGI [2]: > 100 µM
GI50 [3]: 39.2 µM
TGI [3]: > 100 µM
GI50 [4]: 36.3 µM
TGI [4]: > 100 µM
GI50 [5]: > 100 µM
TGI [5]: > 100 µM
GI50 [6]: 31.7 µM
TGI [6]: > 100 µM
GI50 [7]: 50 µM
TGI [7]: > 100 µM
GI50 [8]: > 100 µM
TGI [8]: > 100 µM
GI50 [9]: > 100 µM
TGI [9]: > 100 µM
GI50 [10]: > 100 µM
TGI [10]: > 100 µM
GI50 [11]: > 100 µM
TGI [11]: > 100 µM
GI50 [12]: > 100 µM
TGI [12]: > 100 µM
GI50 [13]: 58.7 µM
TGI [13]: > 100 µM
GI50 [14]: 77 µM
TGI [14]: > 100 µM
GI50 [15]: > 100 µM
TGI [15]: > 100 µM
GI50 [16]: > 100 µM
TGI [16]: > 100 µM
GI50 [17]: > 100 µM
TGI [17]: > 100 µM
GI50 [18]: 46 µM
TGI [18]: > 100 µM
GI50 [19]: 38.5 µM
TGI [19]: > 100 µM
GI50 [20]: 36.1 µM
TGI [20]: > 100 µM
GI50 [21]: > 100 µM
TGI [21]: > 100 µM
GI50 [22]: > 100 µM
TGI [22]: > 100 µM
GI50 [23]: > 100 µM
TGI [23]: > 100 µM
GI50 [24]: > 100 µM
TGI [24]: > 100 µM
GI50 [25]: 36.2 µM
TGI [25]: > 100 µM
GI50 [26]: > 100 µM
TGI [26]: > 100 µM
GI50 [27]: > 100 µM
TGI [27]: > 100 µM
GI50 [28]: 13.2 µM
TGI [28]: > 100 µM
GI50 [29]: 29.5 µM
TGI [29]: > 100 µM
GI50 [30]: 91.2 µM
TGI [30]: > 100 µM
GI50 [31]: > 100 µM
TGI [31]: > 100 µM
GI50 [32]: > 100 µM
TGI [32]: > 100 µM
GI50 [33]: 71.6 µM
TGI [33]: > 100 µM
GI50 [34]: 22.6 µM
TGI [34]: 93.5 µM
GI50 [35]: > 100 µM
TGI [35]: > 100 µM
GI50 [36]: > 100 µM
TGI [36]: > 100 µM
GI50 [37]: > 100 µM
TGI [37]: > 100 µM
GI50 [38]: > 100 µM
TGI [38]: > 100 µM
GI50 [39]: > 100 µM
TGI [39]: > 100 µM
GI50 [40]: 90.1 µM
TGI [40]: > 100 µM
GI50 [41]: > 100 µM
TGI [41]: > 100 µM
GI50 [42]: > 100 µM
TGI [42]: > 100 µM
GI50 [43]: > 100 µM
TGI [43]: > 100 µM
GI50 [44]: > 100 µM
TGI [44]: > 100 µM
GI50 [45]: > 100 µM
TGI [45]: > 100 µM
GI50 [46]: > 100 µM
TGI [46]: > 100 µM
GI50 [47]: 90.3 µM
TGI [47]: > 100 µM
GI50 [48]: 62.5 µM
TGI [48]: > 100 µM
GI50 [49]: > 100 µM
TGI [49]: > 100 µM
GI50 [50]: > 100 µM
TGI [50]: > 100 µM
GI50 [51]: > 100 µM
TGI [51]: > 100 µM
GI50 [52]: 31.6 µM
TGI [52]: > 100 µM
GI50 [53]: > 100 µM
TGI [53]: > 100 µM
GI50 [54]: > 100 µM
TGI [54]: > 100 µM
GI50 [55]: 37.4 µM
TGI [55]: > 100 µM
GI50 [56]: > 100 µM
TGI [56]: > 100 µM
GI50 [57]: > 100 µM
TGI [57]: > 100 µM
GI50 [58]: > 100 µM
TGI [58]: > 100 µM
GI50 [59]: 31.4 µM
TGI [59]: > 100 µM
